Measured values reported in patent US4613601A, “(1-benzodioxin-6-ylmethyl)-4-substituted piperazines having antipsychotic activity” (Adir, S.A.R.L., priority 1982, dated 1986).

Assays:
[1] = tested on: pre-synaptic dopaminergic receptors; assay: hypokinesia in the normal animal, mice or rats; assay type: in vivo
[2] = tested on: hypersensitive post-synaptic dopaminergic receptors; assay: rotations in rats with unilateral lesions of the nigro-neostriatal tract (Ungerstedt); assay type: in vivo, rat
Experimental: The central dopaminergic activity for the compounds of the present invention was determined, especially by measuring the rotations of the rat according to the method of Ungerstedt U., European Journal of Pharmacology, 5, (1968) 107-110. For the compounds of the present invention, administered at a dose of 25 mg/kg subcutaneously, up to 380 rotations were obtained in 45 minutes.
Experiments have also been carried out on rats with unilateral lesions of the nigro-neostriatal tract.
These lesions are produced by local micro-injection of 6-hydroxy dopamine into the black substance of the rat, according to U. Ungerstedt; Europ. J. Pharmacol. 5, 1968, 107-110 and Advances in Neurology, vol. 3, Raven Press., New York (1973).
This treatment leads to a degeneration of the dopaminergic neurons coming from the nigra-substantia, going towards the neostriatum.
Furthermore, following this denervation, the post-synaptic receptors situated above the pithed tract, i.e., above the synapse which leads to the pithed neuron, become hypersensitive to the pharmacological dopaminergic agents administered. This direct activation of hypersensitive dopaminergic receptors then produces the supervention of a motor rotation behaviour in treated rats.
When the left nigro-striatal tract is destroyed, the rotations occur towards the right, on the opposite side to the lesion. The experimental groups each contain from 5 to 6 animals.

[3] = tested on: dopaminergic inhibitory auto-receptors; assay: motor depressant effects (hypokinesia) in mice; assay type: in vivo; details: all doses studied from 20 to 160 mg/kg I.P.
Description: The motor depressant effects of the compound of Example 1 have been studied in mice.

[4] = tested on: d-amphetamine-induced dopaminergic hyperactivity; assay: inhibition of d-amphetamine-induced motor phenomena in mice (activograph); assay type: in vivo
Experimental: the administration of d-amphetamine, at a dose of 1 to 3 mg/kg I.P. in mice, releases the supervention of motor phenomena registered using an activograph.

[5] = tested on: conditioned avoidance response; assay: conditioned avoidance response inhibition in the rat (shuttle box avoidance); assay type: in vivo, male WISTAR rats
Experimental: The method used is based on the works of COURVOISIER et al., Arch. Int. Pharmacodyn. 92, 305-361, (1953), and of JANSSEN et al., Arzneim. Forsch. 15, 104-117, (1965).
The experiments are carried out on groups of 10 to 20 male WISTAR rats weighing between 300 g and 400 g. Each animal is submitted to two day-sessions per week, one after treatment carried out on the substance studied at a given dose, 30 minutes before the session, the other following the administration of a solute of NaCl (0.154M)--I.P. route in both cases. The compound of Example 1 has been administered in solution in sterile bi-distilled water, at doses of 6.25, 12.5, 25, 50 and 75 mg/kg. I.P.
Piribedil chosen as reference product has been administered at the same doses and by the same route. This method is used to show the anti-psychotic activity of a substance. It is known that anti-psychotic agents inhibit the conditioned shunning response, without modifying the escape response following an electric shock (Unconditioned response).

[6] = tested on: dopaminergic inhibitory auto-receptors; assay: electro-encephalogram / sleep in rats; assay type: in vivo
[7] = tested on: dopaminergic post-synaptic receptors of the striatum; assay: stereotyped movements in rats (Quinton and Halliwell scale); assay type: in vivo; details: for total stereotypy score in 3 hours: 6 observations; for total stereotypy score in 3 hours / total stereotypy score: groups of 8 rats; for stimulating activity on the dopaminergic post-synaptic receptors of the striatum: rats, from stereotypy scores
Experimental: The research for stereotyped movements, proof of the existence of a direct post-synaptic dopaminergic stimulating activity, has been carried out in rats using the scale described by R. M. QUINTON and H. HALLIWELL, Nature, 200, 1963, 178-179. The experiment lasts 3 hours, the animals are observed every 30 minutes. The groups are made up of 8 rats each, and the results are the total scores of the accumulated individual scores of the stereotypies observed during the experiment (6 observations).

## C1=COc2cc(CN3CCN(c4ncccn4)CC3)ccc2O1 [Example 1, 1-(benzodioxin-6-ylmethyl)-4-(pyrimidin-2-yl)piperazine]
[1]
  hypokinesia in the normal animal: only provokes an hypokinesia
[2]; 12.5 mg/kg S.C.
  average number of rotations in 45 minutes: 182 rotations
[2]; 25 mg/kg S.C.
  average number of rotations in 45 minutes: 380 rotations
[2]; 50 mg/kg P.O.
  average number of rotations in 45 minutes: 543 rotations
[2]; right side, opposite side to the lesion
  rotations in the unilaterally pithed rat: numerous rotations
[3]
  hypokinesia in mice: provokes in mice a hypokinesia at all the doses studied
[4]; 20 mg/kg compound against 1 mg/kg I.P. d-amphetamine
  antagonism of the effects of d-amphetamine: antagonise
[4]; 40 mg/kg compound against 3 mg/kg I.P. d-amphetamine
  antagonism of the effects of d-amphetamine: antagonise
[4]; joint administration with d-amphetamine 1 to 3 mg/kg I.P.
  inhibition of the motor phenomena due to d-amphetamine: inhibition of the motor phenomena due to the amphetamine
[5]; 6.25 mg/kg I.P.
  Crossings, % over 20: -3%
  Escape response, % in relation to control animals: -14%
  Escape response, % over 20: 1.5%
  Escape response, Number over 20: 0.30
  Shunning response, % in relation to control animals: +0.25%
  Shunning response, % over 20: 98.5%
  Shunning response, Number over 20: 19.7
[5]; 6.25 mg/kg I.P., * = P < 0.05
  Crossings, Number over 20: 20.6
[5]; 12.50 mg/kg I.P.
  Crossings, % over 20: -15%
  Escape response, % in relation to control animals: +71%
  Escape response, % over 20: 3%
  Escape response, Number over 20: 0.6
  Shunning response, % in relation to control animals: -1%
  Shunning response, % over 20: 97%
  Shunning response, Number over 20: 19.4
[5]; 12.50 mg/kg I.P., * = P < 0.05
  Crossings, Number over 20: 18.0
[5]; 25 mg/kg I.P.
  Crossings, % over 20: -9%
  Escape response, % in relation to control animals: +71%
  Escape response, % over 20: 3%
  Escape response, Number over 20: 0.6
  Shunning response, % in relation to control animals: -1%
  Shunning response, % over 20: 97%
  Shunning response, Number over 20: 19.4
[5]; 25 mg/kg I.P., * = P < 0.05
  Crossings, Number over 20: 19.2
[5]; 50 mg/kg I.P.
  Crossings, % change in relation to control animals: +8%
  Escape response, % in relation to control animals: +814%
  Escape response, % over 20: 16%
  Shunning response, % in relation to control animals: -15%
  Shunning response, % over 20: 84%
  diminution of the number of shunning responses: 15%
  increase of the escape responses: 800%
[5]; 50 mg/kg I.P., * = P < 0.05
  Crossings, Number over 20: 22.9
  Escape response, Number over 20: 3.2
  Shunning response, Number over 20: 16.8
[5]; 75 mg/kg I.P.
  Crossings, % change in relation to control animals: +63%
  Escape response, % in relation to control animals: +533%
  Escape response, % over 20: 9.5%
  Shunning response, % in relation to control animals: -8%
  Shunning response, % over 20: 90.5%
  diminution of the number of shunning responses: 8%
  increase of the escape responses: 500%
  increase of the number of spontaneous crossings: 63%
  mobility depressor, sedative, cataleptigenic effect: neither a mobility depressor effect, nor sedative effect, nor cataleptigenic effect
[5]; 75 mg/kg I.P., * = P < 0.05
  Crossings, Number over 20: 25.4
  Escape response, Number over 20: 1.9
  Shunning response, Number over 20: 18.1
[5]; I.P.
  conditioned and unconditioned responses: reduces the conditioned responses without diminishing the unconditioned escape responses
[6]
  central effects observed in the electro-encephalogram: central depressant effects
[6]; 30 mg/kg I.P.
  total sleep (slow sleep and paradoxal sleep), words: increase in total sleep
[6]; 30 mg/kg I.P., second hour following administration
  increase in total sleep: 100%
[7]; 80 mg/kg I.P. or S.C.
  stereotyped movements: very few stereotyped movements
[7]; 80 mg/kg I.P.
  total stereotypy score in 3 hours: 52
[7]; 80 mg/kg S.C.
  total stereotypy score in 3 hours: 49
[7]; normal rats
  stereotypy in normal rats: practically no sterotypy
[7]
  stimulating activity on the dopaminergic post-synaptic receptors of the striatum: no important stimulating activity

## c1cnc(N2CCN(Cc3ccc4c(c3)OCO4)CC2)nc1 [Piribedil, reference compound]
[2]; 50 mg/kg P.O.
  average number of rotations in 45 minutes: 256 rotations
[5]; 6.25 mg/kg I.P.
  Crossings, % change in relation to control animals: +50%
  Escape response, % in relation to control animals: +50%
  Escape response, % over 20: 3%
  Escape response, Number over 20: 0.6
  Shunning response, % in relation to control animals: -1%
  Shunning response, % over 20: 97%
  Shunning response, Number over 20: 19.4
[5]; 6.25 mg/kg I.P., * = P < 0.05
  Crossings, Number over 20: 29.5
[5]; 12.50 mg/kg I.P.
  Crossings, % change in relation to control animals: +47%
  Escape response, % in relation to control animals: 0%
  Escape response, % over 20: 2%
  Escape response, Number over 20: 0.4
  Shunning response, % in relation to control animals: 0%
  Shunning response, % over 20: 98%
  Shunning response, Number over 20: 19.1
[5]; 12.50 mg/kg I.P., * = P < 0.05
  Crossings, Number over 20: 28.9
[5]; 25 mg/kg I.P.
  Crossings, % change in relation to control animals: +148%
  Escape response, % in relation to control animals: +149%
  Escape response, % over 20: 5%
  Escape response, Number over 20: 1
  Shunning response, % in relation to control animals: -3%
  Shunning response, % over 20: 95%
  Shunning response, Number over 20: 19
[5]; 25 mg/kg I.P., * = P < 0.05
  Crossings, Number over 20: 48.9
[5]; 50 mg/kg I.P.
  Crossings, % change in relation to control animals: +118%
  Escape response, % in relation to control animals: +50%
  Escape response, % over 20: 3%
  Shunning response, % in relation to control animals: -1%
  Shunning response, % over 20: 97%
[5]; 50 mg/kg I.P., * = P < 0.05
  Crossings, Number over 20: 42.9
  Escape response, Number over 20: 0.6
  Shunning response, Number over 20: 19.4
[5]; 75 mg/kg I.P.
  Crossings, % change in relation to control animals: +115%
  Escape response, % in relation to control animals: +633%
  Escape response, % over 20: 11%
  Shunning response, % in relation to control animals: -10%
  Shunning response, % over 20: 89%
[5]; 75 mg/kg I.P., * = P < 0.05
  Crossings, Number over 20: 33.5
  Escape response, Number over 20: 2.2
  Shunning response, Number over 20: 17.8
[5]; 6.25 to 75 mg/kg I.P.
  effect on the shunning responses: no agonistic effect on the shunning responses
[6]; E.E.G., same dose (30 mg/kg I.P.)
  reduction of total sleep: 50%
[7]; 20 mg/kg I.P.
  total stereotypy score: 145
[7]; 40 mg/kg I.P.
  total stereotypy score: 246
[7]
  stimulating activity on the dopaminergic post-synaptic receptors of the striatum: stimulates these receptors
